From ChEMBL document CHEMBL4321863, “Exploring Structural Determinants of Inhibitor Affinity and Selectivity in Complexes with Histone Deacetylase 6” (J Med Chem, 2020)
Non-standard residues stand in square brackets, D forms with d. Residues, ends and D or L forms follow the SMILES beside them. *: point of attachment. 3Amb = NCc1cccc(C(=O)O)c1; 4Amb = NCc1ccc(C(=O)O)cc1; Cbz = O=C(OCc1ccccc1)*; NHOH = ON*

Legend:
[1] = target: T1, Protein deacetylase HDAC6 (Homo sapiens, UniProt Q9UBN7); assay: Inhibition of HDAC6 CD2 domain (unknown origin)
T1 sequence (Q9UBN7 whole entry): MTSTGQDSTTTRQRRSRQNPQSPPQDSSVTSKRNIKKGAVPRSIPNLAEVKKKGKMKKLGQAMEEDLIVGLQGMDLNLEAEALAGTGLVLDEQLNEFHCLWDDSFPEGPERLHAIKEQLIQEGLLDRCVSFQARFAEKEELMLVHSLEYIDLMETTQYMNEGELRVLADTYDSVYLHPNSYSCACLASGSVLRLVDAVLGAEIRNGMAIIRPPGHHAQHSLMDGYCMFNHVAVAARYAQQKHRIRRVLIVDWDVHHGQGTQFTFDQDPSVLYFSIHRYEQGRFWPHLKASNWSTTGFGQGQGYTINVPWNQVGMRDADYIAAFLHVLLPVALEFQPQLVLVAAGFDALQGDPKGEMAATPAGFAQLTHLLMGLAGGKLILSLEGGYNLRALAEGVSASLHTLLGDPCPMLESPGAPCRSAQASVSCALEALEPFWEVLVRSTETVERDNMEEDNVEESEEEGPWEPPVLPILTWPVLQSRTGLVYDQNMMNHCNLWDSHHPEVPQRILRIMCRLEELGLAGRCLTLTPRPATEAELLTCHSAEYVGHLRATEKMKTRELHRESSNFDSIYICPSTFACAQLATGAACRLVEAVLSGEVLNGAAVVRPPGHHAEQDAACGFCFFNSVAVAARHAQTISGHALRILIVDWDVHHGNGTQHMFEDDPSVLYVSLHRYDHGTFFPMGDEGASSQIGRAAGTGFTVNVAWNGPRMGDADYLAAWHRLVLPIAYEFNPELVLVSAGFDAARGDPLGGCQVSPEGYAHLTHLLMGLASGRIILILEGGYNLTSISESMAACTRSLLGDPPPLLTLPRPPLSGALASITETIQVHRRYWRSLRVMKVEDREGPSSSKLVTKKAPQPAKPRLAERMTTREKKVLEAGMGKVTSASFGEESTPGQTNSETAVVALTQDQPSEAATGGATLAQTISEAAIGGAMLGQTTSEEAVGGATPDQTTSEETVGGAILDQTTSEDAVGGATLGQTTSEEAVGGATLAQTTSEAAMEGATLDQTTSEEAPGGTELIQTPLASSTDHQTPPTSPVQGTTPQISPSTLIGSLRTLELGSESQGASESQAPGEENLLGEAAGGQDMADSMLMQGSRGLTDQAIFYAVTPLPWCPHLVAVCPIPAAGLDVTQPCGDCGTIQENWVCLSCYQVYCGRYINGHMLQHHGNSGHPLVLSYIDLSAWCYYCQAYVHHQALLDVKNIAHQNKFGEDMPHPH

[2] = target: T1, Protein deacetylase HDAC6; assay: Inhibition of human N-terminal GST-tagged HDAC6 expressed in baculovirus infected insect cells using RHKKAc as substrate
[3] = target: T1, Protein deacetylase HDAC6; assay: Inhibition of recombinant C-terminal FLAG-tagged HDAC6 (unknown origin) using Ac-NH-GGK(Ac)-AMC as substrate measured after 180 mins by fluorescence assay

Row | Structure (SMILES) | IC50 [1] [nM] | IC50 [2] [nM] | other results
1 | CC1(C)[C@@H]2CC[C@@H](CNCc3ccc(C(=O)NO)cc3)[C@H]1C2 | 149 | – | –
2 | CC(C)C[C@H](NC(=O)OCc1ccccc1)C(=O)N[C@@H](C)C(=O)NCc1ccc(C(=O)NO)cc1 (Cbz-Leu-Ala-[4Amb]-{NHOH}) | – | 314 | –
3 | CN(C)Cc1ccc(S(=O)(=O)n2ccc(/C=C/C(=O)NO)c2)cc1 [RESMINOSTAT] | – | – | IC50 [3]: 72 nM
4 | O=C(NO)c1ccc(CNC(=O)c2cccnc2C(F)(F)F)cc1 | – | 17 | –
5 | O=C(CNC(=O)CNC(=O)OCc1ccccc1)NCc1ccc(C(=O)NO)cc1 (Cbz-Gly-Gly-[4Amb]-{NHOH}) | 335 | – | –
6 | CC(C)C[C@H](NC(=O)OCc1ccccc1)C(=O)N[C@@H](C)C(=O)NCc1cccc(C(=O)NO)c1 (Cbz-Leu-Ala-[3Amb]-{NHOH}) | 8420 | – | –
